{
  "source": "paper PMC9127750",
  "about": "“Structure-based design of CDC42 effector interaction inhibitors for the treatment of cancer” (Cell reports, 2022)",
  "system": "WM3248 melanoma cells, 486 antibodies",
  "assay": "Reverse phase protein arrays (RPPA)",
  "assay_type": "cell-based, Human",
  "source_text": "Pellets were snap frozen in liquid nitrogen and shipped to MD Anderson Cancer Center core RPPA facility for RPPA analysis (Table S5). Three biological replicates for each sample were generated.\nNomenclatures on the RPPA heatmaps: name_of_antibody.species_of_antibody.status_of_antibody. V - antibody validated; C - validation of antibody in progress; Q - antibody nonspecific; E – under evaluation; antibodies raised in M - mouse, G - goat, R - rabbit, or T - rat.",
  "key": {"[1]": {"conditions": "Norm_10, replicates 1-3 and Average, relative to Norm_0"}},
  "note": "“And” between values parts separate entries of the source, which are not always exact repeats. Identical values can stand only once.",
  "data": [
    {"smiles": "CN(C)c1cccc(Nc2cc(-c3ccccc3)nc(C3CCNCC3)n2)c1", "note": "[ARN22089, N1,N1-dimethyl-N3-(6-phenyl-2-(piperidin-4-yl)pyrimidin-4-yl)benzene-1,3-diamine]", "values": [
      {"measurement": "A.Raf.R.V RPPA signal, normalized", "setting": "[1]", "result": "1.018 and 0.886 and 0.845 and 0.916"},
      {"measurement": "A.Raf_pS299.R.C RPPA signal, normalized", "setting": "[1]", "result": "0.956 and 1.046 and 0.963 and 0.988"},
      {"measurement": "ACC1.R.C RPPA signal, normalized", "setting": "[1]", "result": "0.867 and 0.964 and 1.014"},
      {"measurement": "ACC_pS79.R.V RPPA signal, normalized", "setting": "[1]", "result": "1.238 and 0.635 and 0.956 and 0.943"},
      {"measurement": "ACLY_pS455.R.V RPPA signal, normalized", "setting": "[1]", "result": "1.247 and 1.003 and 1.249 and 1.166"},
      {"measurement": "ACSL1.R.V RPPA signal, normalized", "setting": "[1]", "result": "1.119 and 1.062 and 0.954"},
      {"measurement": "ACVRL1.R.C RPPA signal, normalized", "setting": "[1]", "result": "0.974 and 1.028 and 1.030"},
      {"measurement": "ADAR1.M.V RPPA signal, normalized", "setting": "[1]", "result": "1.080 and 1.272 and 0.921"},
      {"measurement": "ALKBH5.R.V RPPA signal, normalized", "setting": "[1]", "result": "1.021 and 1.291 and 1.103 and 1.138"},
      {"measurement": "AMPK.a2_pS345.R.V RPPA signal, normalized", "setting": "[1]", "result": "0.954 and 0.956 and 0.960"},
      {"measurement": "AMPKa.R.C RPPA signal, normalized", "setting": "[1]", "result": "1.010 and 0.920 and 1.002 and 0.977"},
      {"measurement": "AMPKa_pT172.R.C RPPA signal, normalized", "setting": "[1]", "result": "3.569 and 0.222 and 0.796 and 1.529"},
      {"measurement": "AR.R.V RPPA signal, normalized", "setting": "[1]", "result": "0.751 and 0.934 and 0.920"},
      {"measurement": "ARID1A.R.C RPPA signal, normalized", "setting": "[1]", "result": "1.114 and 1.573 and 0.868 and 1.185"},
      {"measurement": "ASNS.R.V RPPA signal, normalized", "setting": "[1]", "result": "1.340 and 0.994 and 0.954 and 1.096"},
      {"measurement": "ATM.R.V RPPA signal, normalized", "setting": "[1]", "result": "0.847 and 0.838 and 0.979 and 0.888"},
      {"measurement": "ATM_pS1981.R.V RPPA signal, normalized", "setting": "[1]", "result": "0.930 and 1.145"},
      {"measurement": "ATP5A.M.C RPPA signal, normalized", "setting": "[1]", "result": "1.031 and 1.371 and 1.971 and 1.457"},
      {"measurement": "ATP5H.R.V RPPA signal, normalized", "setting": "[1]", "result": "0.974 and 1.346 and 1.188 and 1.169"},
      {"measurement": "ATR.R.V RPPA signal, normalized", "setting": "[1]", "result": "0.962 and 1.081 and 1.002 and 1.015"},
      {"measurement": "ATRX.R.C RPPA signal, normalized", "setting": "[1]", "result": "0.876 and 0.968 and 0.978"},
      {"measurement": "ATR_pS428.R.C RPPA signal, normalized", "setting": "[1]", "result": "1.008 and 0.851 and 1.012 and 0.957"},
      {"measurement": "AceCS1.R.V RPPA signal, normalized", "setting": "[1]", "result": "1.235 and 1.121"},
      {"measurement": "Akt1.R.V RPPA signal, normalized", "setting": "[1]", "result": "0.800 and 0.756 and 1.156 and 0.904"},
      {"measurement": "Akt1_pS473.R.V RPPA signal, normalized", "setting": "[1]", "result": "0.892 and 0.682 and 1.059 and 0.878"},
      {"measurement": "Akt2.R.V RPPA signal, normalized", "setting": "[1]", "result": "0.829 and 0.768 and 1.018 and 0.872"},
      {"measurement": "Akt2_pS474.R.C RPPA signal, normalized", "setting": "[1]", "result": "1.011 and 0.801 and 0.950"},
      {"measurement": "Akt.R.V RPPA signal, normalized", "setting": "[1]", "result": "0.830 and 0.878 (2×) and 0.925"},
      {"measurement": "Akt_pS473.R.V RPPA signal, normalized", "setting": "[1]", "result": "2.128 and 0.984 and 1.238 and 1.450"},
      {"measurement": "Akt_pT308.R.V RPPA signal, normalized", "setting": "[1]", "result": "1.187 and 1.056 and 1.185 and 1.143"},
      {"measurement": "Ambra1_pS52.R.C RPPA signal, normalized", "setting": "[1]", "result": "0.964 (2×) and 1.015 and 0.981"},
      {"measurement": "Annexin.I.M.V RPPA signal, normalized", "setting": "[1]", "result": "0.849 and 0.987 and 1.005"},
      {"measurement": "Annexin.VII.M.V RPPA signal, normalized", "setting": "[1]", "result": "0.985 and 1.189 and 0.954"},
      {"measurement": "Atg3.R.V RPPA signal, normalized", "setting": "[1]", "result": "0.983 and 0.993 and 0.963"},
      {"measurement": "Atg4B.R.C RPPA signal, normalized", "setting": "[1]", "result": "0.966 and 1.004"},
      {"measurement": "Atg5.R.C RPPA signal, normalized", "setting": "[1]", "result": "0.905 and 0.930 and 0.971 and 0.935"},
      {"measurement": "Atg7.R.V RPPA signal, normalized", "setting": "[1]", "result": "0.958 and 0.891 and 0.903 and 0.917"},
      {"measurement": "Aurora.A.R.C RPPA signal, normalized", "setting": "[1]", "result": "0.694 and 1.245 and 1.028 and 0.989"},
      {"measurement": "Aurora.ABC_pT288_pT232_pT198.R.C RPPA signal, normalized", "setting": "[1]", "result": "1.548 and 0.847 and 0.955 and 1.117"},
      {"measurement": "Aurora.B.R.V RPPA signal, normalized", "setting": "[1]", "result": "1.012 and 1.271 and 1.347 and 1.210"},
      {"measurement": "Axl.R.V RPPA signal, normalized", "setting": "[1]", "result": "1.047 and 0.637 and 0.861 and 0.848"},
      {"measurement": "B7.H3.R.C RPPA signal, normalized", "setting": "[1]", "result": "0.961 and 0.915 and 0.940 and 0.939"},
      {"measurement": "B7.H4.R.C RPPA signal, normalized", "setting": "[1]", "result": "0.943 and 0.916 and 1.001 and 0.953"},
      {"measurement": "B.Raf.R.C RPPA signal, normalized", "setting": "[1]", "result": "0.738 and 0.844 and 1.157 and 0.913"},
      {"measurement": "B.Raf_pS445.R.V RPPA signal, normalized", "setting": "[1]", "result": "0.940 and 0.823 and 0.918 and 0.894"},
      {"measurement": "BAP1.M.V RPPA signal, normalized", "setting": "[1]", "result": "0.893 and 1.010 and 1.204"},
      {"measurement": "BCL2A1.R.V RPPA signal, normalized", "setting": "[1]", "result": "0.914 and 2.333 and 1.252 and 1.499"},
      {"measurement": "BMK1.Erk5_pT218_Y220.R.V RPPA signal, normalized", "setting": "[1]", "result": "0.935 and 0.870 and 0.918"},
      {"measurement": "BRCA1.M.C RPPA signal, normalized", "setting": "[1]", "result": "0.931 and 1.056 and 1.010"},
      {"measurement": "BRD4.R.V RPPA signal, normalized", "setting": "[1]", "result": "1.134 and 1.372 and 0.806 and 1.104"},
      {"measurement": "Bad_pS112.R.V RPPA signal, normalized", "setting": "[1]", "result": "1.129 and 0.968 and 1.064 and 1.054"},
      {"measurement": "Bak.R.C RPPA signal, normalized", "setting": "[1]", "result": "1.051 and 0.994 and 0.952 and 0.999"},
      {"measurement": "Bax.R.V RPPA signal, normalized", "setting": "[1]", "result": "0.935 and 1.085 and 1.013 and 1.011"},
      {"measurement": "Bcl2.R.C RPPA signal, normalized", "setting": "[1]", "result": "0.991 and 1.244 and 1.141 and 1.125"},
      {"measurement": "Bcl.xL.R.V RPPA signal, normalized", "setting": "[1]", "result": "0.890 and 1.164 and 1.151"},
      {"measurement": "Beclin.R.C RPPA signal, normalized", "setting": "[1]", "result": "0.901 and 1.245 and 1.080"},
      {"measurement": "BiP.GRP78.M.C RPPA signal, normalized", "setting": "[1]", "result": "0.879 and 1.117 and 1.006 and 1.001"},
      {"measurement": "Bid.R.C RPPA signal, normalized", "setting": "[1]", "result": "0.866 and 0.980 and 0.948 and 0.931"},
      {"measurement": "Bim.R.V RPPA signal, normalized", "setting": "[1]", "result": "0.847 and 0.884 and 0.890 and 0.874"},
      {"measurement": "X4E.BP1.R.V RPPA signal, normalized", "setting": "[1]", "result": "1.207 and 0.505 and 0.892 and 0.868"},
      {"measurement": "X4E.BP1_pS65.R.V RPPA signal, normalized", "setting": "[1]", "result": "0.934 and 1.191 and 1.054"},
      {"measurement": "X4E.BP1_pT37_T46.R.V RPPA signal, normalized", "setting": "[1]", "result": "0.921 and 1.081 and 1.234 and 1.079"},
      {"measurement": "X14.3.3.zeta.R.V RPPA signal, normalized", "setting": "[1]", "result": "1.058 and 1.063"},
      {"measurement": "X14.3.3βR.V RPPA signal, normalized", "setting": "[1]", "result": "0.989 and 1.030 and 1.010 (2×)"},
      {"measurement": "X14.3.3εM.C RPPA signal, normalized", "setting": "[1]", "result": "0.934 and 0.986 and 1.121 and 1.013"},
      {"measurement": "X53BP1.R.V RPPA signal, normalized", "setting": "[1]", "result": "0.994 and 0.931 and 0.923"},
      {"measurement": "b.Actin.R.C RPPA signal, normalized", "setting": "[1]", "result": "0.850 and 1.249 and 1.164"},
      {"measurement": "b.Catenin.R.V RPPA signal, normalized", "setting": "[1]", "result": "0.881 and 0.923"},
      {"measurement": "b.Catenin_pT41_S45.R.V RPPA signal, normalized", "setting": "[1]", "result": "1.016 and 0.989 and 1.006 and 1.004"},
      {"measurement": "c.Abl.R.V RPPA signal, normalized", "setting": "[1]", "result": "1.105 and 1.008 and 1.020"},
      {"measurement": "c.Abl_pY412.R.C RPPA signal, normalized", "setting": "[1]", "result": "0.873 and 0.871 and 0.928"},
      {"measurement": "c.IAP2.R.C RPPA signal, normalized", "setting": "[1]", "result": "1.099 and 1.057"},
      {"measurement": "C.Raf.R.C normalized signal", "setting": "Norm_10 Average", "result": 0.862},
      {"measurement": "C.Raf_pS338.R.V normalized signal", "setting": "Norm_10 Average", "result": 0.971},
      {"measurement": "CA9.R.C normalized signal", "setting": "Norm_10 Average", "result": 0.943},
      {"measurement": "CD2.M.C normalized signal", "setting": "Norm_10 Average", "result": 0.963},
      {"measurement": "CD4.R.V normalized signal", "setting": "Norm_10 Average", "result": 0.931},
      {"measurement": "CD5.M.C normalized signal", "setting": "Norm_10 Average", "result": 1.007},
      {"measurement": "CD20.R.C normalized signal", "setting": "Norm_10 Average", "result": 1.296},
      {"measurement": "CD26.R.V normalized signal", "setting": "Norm_10 Average", "result": 1.007},
      {"measurement": "CD29.M.V normalized signal", "setting": "Norm_10 Average", "result": 0.953}
    ]}
  ]
}
